The subject of this assay is AKR/Lw mice, AKR lymphoma ip, median survival T/C. In words: NCI In Vivo Anticancer Drug Screen. Data for tumor model Lymphoma AKR (Transplanted) (intraperitoneal) in AKR/Lw mice. The settings on record: endpoint: median survival time, higher = longer survival. The procedure: The antitumor activity of compounds was measured in mice bearing transplantable tumors. Survival or tumor size were measured and the results are expressed as the measurement made in the treated group (T) divided by the measurement made in the vehicle treated control group (C). The tumor model used in this assay is Lymphoma AKR (Transplanted) (intraperitoneal) in AKR/Lw mice

[1] abbreviates: dose: 12.0 mg/kg/injection, schedule: Q01DX001 (ip), vehicle: saline.
Where [2] appears, read: dose: 100.0 mg/kg/injection, schedule: Q01DX001 (ip), vehicle: Klucel (hydroxypropylcellulose) (HPC).
Where [3] appears, read: dose: 200.0 mg/kg/injection, schedule: Q01DX001 (ip), vehicle: Klucel (hydroxypropylcellulose) (HPC).
Setting [4] is: dose: 400.0 mg/kg/injection, schedule: Q01DX001 (ip), vehicle: Klucel (hydroxypropylcellulose) (HPC).

Where “and” joins values, the source holds several entries; their conditions need not be identical. Equal values may be shown once. Inconclusive results and toxic doses are left out.

For the compound `CN(Cc1cnc2nc(N)nc(N)c2n1)c1ccc(C(=O)N[C@@H](CCC(=O)O)C(=O)O)cc1`, the T/C reads like this: (dose: 0.15 mg/kg/injection, schedule: Q04DX003 (ip), vehicle: saline) 100 % of control; (dose: 0.25 mg/kg/injection, schedule: Q01DX001 (ip), vehicle: saline) 106 % of control; (dose: 0.25 mg/kg/injection, schedule: Q01DX009 (ip), vehicle: saline) 112 % of control; (dose: 0.25 mg/kg/injection, schedule: Q01DX015 (ip), vehicle: saline) 114 % of control and 116 % of control; (dose: 0.3 mg/kg/injection, schedule: Q04DX003 (ip), vehicle: saline) 111 % of control; (dose: 0.5 mg/kg/injection, schedule: Q01DX001 (ip), vehicle: saline) 109 % of control and 117 % of control. The T/C is, setting by setting: (dose: 0.5 mg/kg/injection, schedule: Q04DX008 (ip), vehicle: saline) 116 % of control; (dose: 0.6 mg/kg/injection, schedule: Q04DX003 (ip), vehicle: saline) 98 % of control; (dose: 0.75 mg/kg/injection, schedule: Q01DX009 (ip), vehicle: saline) 112 % of control; (dose: 0.75 mg/kg/injection, schedule: Q04DX003 (ip), vehicle: saline) 87 % of control and 93 % of control and 111 % of control; (dose: 1.0 mg/kg/injection, schedule: Q01DX001 (ip), vehicle: saline) 109 % of control and 115 % of control; (dose: 1.2 mg/kg/injection, schedule: Q01DX009 (ip), vehicle: saline) 91 % of control. For the same compound, the T/C is, setting by setting: (dose: 1.5 mg/kg/injection, schedule: Q01DX001 (ip), vehicle: saline) 89 % of control and 102 % of control; (dose: 1.5 mg/kg/injection, schedule: Q01DX015 (ip), vehicle: saline) 197 % of control; (dose: 2.0 mg/kg/injection, schedule: Q01DX001 (ip), vehicle: saline) 106 % of control and 115 % of control; (dose: 2.0 mg/kg/injection, schedule: Q04DX003 (ip), vehicle: saline) 95 % of control; (dose: 2.5 mg/kg/injection, schedule: Q01DX009 (ip), vehicle: saline) 87 % of control and 91 % of control; (dose: 3.0 mg/kg/injection, schedule: Q01DX001 (ip), vehicle: saline) 100 % of control and 114 % of control and 116 % of control. The T/C by setting is: (dose: 4.0 mg/kg/injection, schedule: Q01DX001 (ip), vehicle: saline) 116 % of control; (dose: 4.0 mg/kg/injection, schedule: Q01DX009 (ip), vehicle: saline) 94 % of control; (dose: 4.0 mg/kg/injection, schedule: Q04DX003 (ip), vehicle: saline) 109 % of control; (dose: 4.0 mg/kg/injection, schedule: Q04DX008 (ip), vehicle: saline) 113 % of control; (dose: 5.0 mg/kg/injection, schedule: Q01DX001 (ip), vehicle: saline) 114 % of control; (dose: 5.0 mg/kg/injection, schedule: Q01DX009 (ip), vehicle: saline) 88 % of control. The T/C (dose: 10.0 mg/kg/injection, schedule: Q01DX001 (ip), vehicle: saline) is 102 % of control and 104 % of control; the T/C (dose: 11.0 mg/kg/injection, schedule: Q04DX008 (ip), vehicle: saline) is 123 % of control; the T/C under setting [1] is 107 % of control and 111 % of control; the T/C (dose: 12.0 mg/kg/injection, schedule: Q04DX003 (ip), vehicle: saline) is 93 % of control and 100 % of control; the T/C (dose: 16.0 mg/kg/injection, schedule: Q04DX004 (ip), vehicle: saline) was 93 % of control; the T/C (dose: 20.0 mg/kg/injection, schedule: Q01DX001 (ip), vehicle: saline) is 102 % of control. Moreover, the T/C by setting is: (dose: 24.0 mg/kg/injection, schedule: Q04DX003 (ip), vehicle: saline) 94 % of control; (dose: 24.0 mg/kg/injection, schedule: Q04DX004 (ip), vehicle: saline) 115 % of control; (dose: 40.0 mg/kg/injection, schedule: Q01DX001 (ip), vehicle: saline) 108 % of control.
For the compound `NS(=O)(=O)c1ccc(N=Nc2nc3ncnc(SCc4cccs4)c3[nH]2)cc1`, the T/C is, setting by setting: under setting [2], 97 % of control; under setting [3], 102 % of control; under setting [4], 107 % of control.
On to `Cn1c(O)c(C=N)c(=O)n(C)c1=O`, for which the T/C was 102 % of control under setting [1]; 97 % of control (dose: 12.5 mg/kg/injection, schedule: Q04DX003 (ip), vehicle: saline); 105 % of control (dose: 25.0 mg/kg/injection, schedule: Q01DX001 (ip), vehicle: saline); 100 % of control (dose: 25.0 mg/kg/injection, schedule: Q04DX003 (ip), vehicle: saline); 100 % of control (dose: 50.0 mg/kg/injection, schedule: Q01DX001 (ip), vehicle: saline); 100 % of control (dose: 50.0 mg/kg/injection, schedule: Q04DX003 (ip), vehicle: saline).
Take `COC(=O)CC(=O)c1ccc(C)cc1`: the T/C is, setting by setting: under setting [2], 100 % of control; under setting [3], 103 % of control; under setting [4], 120 % of control.
For `N[C@@H](Cc1ccc(N(CCCl)CCCl)cc1)C(=O)O`, the T/C by setting is: (dose: 0.25 mg/kg/injection, schedule: Q04DX008 (ip), vehicle: Klucel (hydroxypropylcellulose) (HPC)) 102 % of control; (dose: 0.5 mg/kg/injection, schedule: Q04DX008 (ip), vehicle: Klucel (hydroxypropylcellulose) (HPC)) 94 % of control; (dose: 0.75 mg/kg/injection, schedule: Q04DX008 (ip), vehicle: Klucel (hydroxypropylcellulose) (HPC)) 119 % of control; (dose: 1.0 mg/kg/injection, schedule: Q04DX004 (ip), vehicle: Klucel (hydroxypropylcellulose) (HPC)) 123 % of control; (dose: 1.0 mg/kg/injection, schedule: Q04DX004 (ip), vehicle: saline) 115 % of control; (dose: 1.0 mg/kg/injection, schedule: Q04DX008 (ip), vehicle: Klucel (hydroxypropylcellulose) (HPC)) 100 % of control. For the same compound, the T/C was 158 % of control (dose: 2.0 mg/kg/injection, schedule: Q04DX004 (ip), vehicle: Klucel (hydroxypropylcellulose) (HPC)); 107 % of control (dose: 2.0 mg/kg/injection, schedule: Q04DX004 (ip), vehicle: saline); 116 % of control (dose: 2.0 mg/kg/injection, schedule: Q04DX008 (ip), vehicle: Klucel (hydroxypropylcellulose) (HPC)); 107 % of control (dose: 2.5 mg/kg/injection, schedule: Q01DX001 (ip), vehicle: Klucel (hydroxypropylcellulose) (HPC)); 179 % of control (dose: 3.9 mg/kg/injection, schedule: Q04DX004 (ip), vehicle: Klucel (hydroxypropylcellulose) (HPC)); 307 % of control (dose: 3.9 mg/kg/injection, schedule: Q04DX004 (ip), vehicle: saline). For the same compound, the T/C is, setting by setting: (dose: 6.0 mg/kg/injection, schedule: Q04DX004 (ip), vehicle: Klucel (hydroxypropylcellulose) (HPC)) 200 % of control; (dose: 6.0 mg/kg/injection, schedule: Q04DX004 (ip), vehicle: saline) 164 % of control; (dose: 7.7 mg/kg/injection, schedule: Q04DX008 (ip), vehicle: Klucel (hydroxypropylcellulose) (HPC)) 100 % of control; (dose: 9.0 mg/kg/injection, schedule: Q01DX001 (ip), vehicle: Klucel (hydroxypropylcellulose) (HPC)) 150 % of control; (dose: 12.0 mg/kg/injection, schedule: Q01DX001 (ip), vehicle: Klucel (hydroxypropylcellulose) (HPC)) 102 % of control; (dose: 16.0 mg/kg/injection, schedule: Q01DX001 (ip), vehicle: Klucel (hydroxypropylcellulose) (HPC)) 92 % of control.
In the case of `CC1NC1(c1ccccc1)[n+]1ccccc1` (stereo unspecified), the T/C (dose: 200.0 mg/kg/injection, schedule: Q01DX001 (ip), vehicle: saline) is 100 % of control.
For `CCOC(=O)/C(C(C)=O)=C(/O)c1ccc(OC(F)(F)C(F)Cl)cc1OC(F)(F)C(F)Cl.CCOC(=O)/C(C(C)=O)=C(/O)c1ccc(OC(F)(F)C(F)Cl)cc1OC(F)(F)C(F)Cl.[Cu]` (stereo unspecified), the T/C under setting [2] was 100 % of control and the T/C under setting [3] is 90 % of control.

These data come from PubChem BioAssay AID190 (DTP/NCI, 2004).
